Test results from patent US20220145303A1, “FRAGILE X MENTAL RETARDATION PROTEIN INTERFERING OLIGONUCLEOTIDES AND METHODS OF USING SAME” (Nogra Pharma Limited, priority 2019, published 2022).

Columns and labels:
FMRP = FMRP knockdown: Western blot of FMRP after transfection with FMRP antisense or sense oligonucleotide; type: cell-based, human; details: 48 hours, AS 0.5-100 nM, S 100 nM
Experimental: Total proteins were extracted from mouse colonic tissues, and lysed on ice in buffer containing 10 mM HEPES [pH 7.9], 10 mM KCl, 0.1 mM EthyleneDiamineTetraacetic Acid (EDTA), 0.2 mM Ethylene Glycol-bis (β-aminoethyl ether)-N,N,N′,N′-Tetraacetic Acid (EGTA) and 0.5% Nonidet P40 supplemented with 1 mM dithiothreitol (DTT), […], […], 1 mM phenylmethylsulfonyl fluoride (PMSF), 1 mM Na3VO4, and 1 mM NaF. Lysates were clarified by centrifugation and separated on sodium dodecyl sulphate (SDS)-polyacrylamide gel electrophoresis. Blots were incubated with antibodies against: FMRP (Cell Signaling, Danvers, Mass.), followed by a secondary antibody conjugated to horseradish peroxidase (Dako, Milan, Italy). After analysis, each blot was stripped and incubated with a mouse-anti-human monoclonal β-actin antibody (Sigma-Aldrich) to ascertain equivalent loading of the lanes.
Human CRC cell lines, DLD-1 and HCT-116, were obtained from the American Type Culture Collection (ATCC, Manassas, Va.) and cultured in RPMI 1640 (DLD-1) and McCoy's 5A (HCT-116) medium, respectively. All media were supplemented with 10% fetal bovine serum, 1% penicillin/streptomycin (both from Lonza, Verviers, Belgium). The normal human colon epithelial cell line (HCEC-1ct) was obtained from EVERCYTE GmbH (Vienna, Austria) and cultured in ColoUp® medium (EVERCYTE GmbH). Cells were maintained in a 37° C., 5% CO2, fully humidified incubator. Cell line lysates were prepared and analyzed by SDS-polyacrylamide gel electrophoresis/immunoblot using methods as previously described in Example 2. For immunofluorescent staining, cell lines were fixed with 3.7% formaldehyde for 10 minutes at 4° C., permeabilized with 0.1% Triton for 10 minutes at room temperature and blocked (1% bovine serum albumin, Tween 0.1%, glycine 2%) for 1 hour at room temperature. Fixed and blocked cells were incubated with anti-FMRP monoclonal antibody (1:500, Cell Signaling, Danvers, Mass.) overnight at 4° C. After washing with PBS, secondary antibody goat anti-rabbit Alexa 488 (1:2000, A11008; Invitrogen) was applied for 1 hour at room temperature. Slides were washed with PBS, mounted using Prolong Gold® anti-fade reagent with 4′,6-diamidino-2-phenylindole (P36931; Invitrogen) and analyzed by a Leica DMI4000 B microscope with Leica application suite software (V4.6.2).
Phosphorothioate single-stranded antisense oligonucleotides complementary to human FMRP [5′-[…]-3′ (SEQ ID NO: 6)] and single-stranded sense oligonucleotides [5′-[…]-3′ (SEQ ID NO: 15)] were synthesized. CRC cell lines and HCEC-1ct cells were transfected with either FMRP antisense (AS)(final concentration 0.5-100 nM) or FMRP sense oligonucleotide (S) (final concentration100 nM) for 24 and 48 hours, using Opti-MEM medium and lipofectamine 3000 reagent (Thermo Fisher Scientific, Waltham, Mass., USA) according to the manufacturer's instructions.

DLD-1 cell lines = experiment: Cell cycle distribution by bromodeoxyuridine/PI flow cytometry; type: cell-based, human; details: DLD-1 48 hours (FIGS. 4D, 4E); HCT-116 36 hours (FIGS. 4F, 4G); before induction of cell death
Experimental: Cells were transfected with either FMRP antisense oligonucleotide (AS)(final concentration 0.5 nM and 100 nM) or FMRP sense oligonucleotide (S)(final concentration 100 nM). After 24 hours (FIGS. 3E, 3F, 3J and 3K) or 48 hours (FIG. 3H), cells were collected, washed two times in Annexin V (AV) buffer, stained with FITC-AnnexinV (final dilution 1:100; Immunotools, Friesoythe, Germany) according to the manufacturer's instructions, and incubated with […] of propidium iodide (PI) for 30 min at 4° C. Cells were also transfected with either FMRP sense oligonucleotide or FMRP AS oligonucleotide (final concentration 100 nM) for 36 hours and analyzed for activated caspase 3 and caspase 8. As positive and negative controls, cells were treated, respectively, with staurosporin (final concentration 1 μM, Sigma-Aldrich Milan, Italy) or Q-VD-OPh (a pan-caspase inhibitor; final concentration 1 μM) (R&D Systems, Inc, Minneapolis, Minn.). Additionally, 36 hours (FIGS. 4F and 4G) or 48 hours post-transfection (FIGS. 4D and 4E), cells were pulsed with […] bromodeoxyuridine for 60 minutes, fixed in 70% cold ethanol, and stored at −20° C. for at least 3 hours. […] Fluorescence was measured using Gallios Flow Cytometer (Beckman Coulter, Life Sciences, Pasadena, Calif., USA) and analyzed using Kaluza software (Beckman Coulter). […]

E-cadherin = experiment: Western blot of E-cadherin in HCT-116 cells; type: cell-based, human; details: HCT-116, AS 0.5 nM, 48 hours, vs untreated or sense, FIGS. 8E, 8F
Experimental: (§1) To determine whether FMRP regulates levels of E-cadherin and/or β-catenin, key proteins associated with cellular adhesion, cytoskeletal remodeling, and inhibition of tumor migration and invasion, cells were left untreated (U), or transfected with either FMRP sense (S) oligonucleotide (final concentration 0.5 nM) or FMRP antisense (AS) oligonucleotide (final concentration 0.5 nM) for 48 hours.
(§2) Recent studies have described a novel tumor suppressor function of MCC in the regulation of E-cadherin/β-catenin complex-mediated cell-cell adhesion in colorectal cells. To investigate whether MCC mediates the observed increase of E-cadherin and β-catenin expression in HCT-116 cells transfected with antisense FMRP oligonucleotide (e.g., FIGS. 8E-8G), cells were left untreated (U) or transfected with sense FMRP oligonucleotide (final concentration 0.5 nM), or antisense FMRP oligonucleotide (final concentration 0.5 nM), and/or control siRNA (siRNA Ctrl) or siRNA specific for MCC (siRNA MCC) for 48 hours.

β-catenin = experiment: Western blot of β-catenin in HCT-116 cells; type: cell-based, human; details: HCT-116, AS 0.5 nM, 48 hours, vs untreated or sense, FIGS. 8E, 8G
Experimental: as §1, §2

MLKL = experiment: Western blot of phospho-MLKL after FMRP antisense treatment; type: cell-based; details: human CRC cell lines, 24 hours, FIGS. 6A, 6D
Experimental: To confirm the association of FMRP with components of the necroptosis pathway, cells were left untreated or transfected with either FMRP antisense oligonucleotide (final concentration 0.5 nM and 100 nM) or FMRP sense oligonucleotide (final concentration 100 nM); incubated with a pMLKL inhibitor (necrosulfonamide, NSA; final concentration 1 μM)(Calbiochem); or a pRIPK1 inhibitor (necrostatinl, NEC1; final concentration 10 μM)(Cayman Chemical, Ann Arbor, Mich. USA). After 24 hours cells were collected and analyzed by Western blot, or stained with FITC-Annexin V and PI for flow cytometry analysis, as previously described in Examples 1-3.

## 5′-TCCACCACCAGCTCCTCCAT-3′ (all phosphorothioate, sugars by position and methylation of C not given here) [FMRP antisense oligonucleotide, Phosphorothioate single-stranded antisense oligonucleotides complementary to human FMRP]
FMRP; DLD-1 cells, FIG. 3D
  FMRP expression: significantly inhibited FMRP expression
FMRP; HCEC-1ct cells, FIG. 3I
  FMRP expression: significantly inhibited FMRP expression
FMRP; HCT-116 cells, FIG. 3G
  FMRP expression: significantly inhibited FMRP expression
DLD-1 cell lines
  relative percentage of cells in G2/M, S, or G0/G1 cell cycle phases: did not affect
E-cadherin
  E-cadherin protein expression: significantly increased
β-catenin
  β-catenin protein expression: significantly increased
MLKL
  phosphorylation of MLKL: increased phosphorylation
